Source: ChEMBL document CHEMBL4257509, “Effect of isouronium/guanidinium substitution on the efficacy of a series of novel anti-cancer agents” (Medchemcomm, 2018)
Activity calls are given as the source filed them. No cut-off for these calls is given here.

Columns and labels:
HeLa = assay: Cytotoxicity against human HeLa cells after 72 hrs by alamar blue assay; format: functional, cell-based
MCF7 [1] = assay: Cytotoxicity against human MCF7 cells after 72 hrs by alamar blue assay; format: functional, cell-based; details: MCF7, 72 h
HL-60 [2] = assay: Cytotoxicity against human HL60 cells after 72 hrs by alamar blue assay; format: functional, cell-based; details: HL-60, 72 h
MCF7 [3] = assay: Inhibition of ERK phosphorylation in human MCF7 cells at 10 uM after 16 hrs by Western blot analysis; format: cell-based
Homo sapiens = species: Homo sapiens; assay: Inhibition of ERK phosphorylation in human HL60 cells at 10 uM after 16 hrs by Western blot analysis; format: cell-based
MCF7 [4] = assay: Effect on total ERK expression in human MCF7 cells after 16 hrs by Western blot analysis; format: cell-based; details: mcf7, 16 h
HL-60 [5] = assay: Effect on total ERK expression in human HL60 cells after 16 hrs by Western blot analysis; format: cell-based; details: hl-60, 16 h

Row | Compound | IC50 (HeLa) | IC50 (MCF7 [1]) | IC50 (HL-60 [2]) | inhibition (MCF7 [3]) | inhibition (Homo sapiens) | Activity (MCF7 [4]) | Activity (HL-60 [5])
1 | N=C(N)Oc1ccc(Oc2cccc(NC(=O)c3ccc(Cl)c(C(F)(F)F)c3)c2)cc1 | 83.6 µM | 28.7 µM | 35.6 µM | – | – | – | –
2 | Cl.Cl.N=C(Nc1cccc(Oc2ccc(OC(=N)N)cc2)c1)Nc1ccc(Cl)c(C(F)(F)F)c1 | 3.35 µM | 4.68 µM | 5.49 µM | Active | Active | Non-Toxic | Non-Toxic
3 | CNC(=O)c1cc(Oc2ccc(NC(=O)Nc3ccc(Cl)c(C(F)(F)F)c3)cc2)ccn1 [SORAFENIB] | 4.59 µM | 3.07 µM | 2.59 µM | Active | Active | Non-Toxic | Non-Toxic
4 | Cl.Cl.N=C(N)Nc1ccc(Oc2cccc(NC(=N)Nc3ccc(Cl)c(C(F)(F)F)c3)c2)cc1 | 9.48 µM | 9.84 µM | – | Active | inactive | Non-Toxic | Non-Toxic
5 | N=C(N)Nc1ccc(Oc2cccc(NC(=O)c3ccc(Cl)c(C(F)(F)F)c3)c2)cc1 | 11.3 µM | 20.8 µM | 28.2 µM | – | – | – | –
